The IC50 is the concentration that inhibits the measured activity by half. Higher therefore signals weaker potency in that assay.

The values below come from patent publication US11739098B2 (BRISTOL-MYERS SQUIBB COMPANY, priority 2017, dated 2023).

Holding throughout (assay type): cell-based
One assay concerns the target T1, human TLR9 (Homo sapiens, UniProt Q9NR96).
T1 construct: host or cells: HEK-Blue cells (HEK293-derived reporter line)
T1 sequence (Q9NR96 26-1032): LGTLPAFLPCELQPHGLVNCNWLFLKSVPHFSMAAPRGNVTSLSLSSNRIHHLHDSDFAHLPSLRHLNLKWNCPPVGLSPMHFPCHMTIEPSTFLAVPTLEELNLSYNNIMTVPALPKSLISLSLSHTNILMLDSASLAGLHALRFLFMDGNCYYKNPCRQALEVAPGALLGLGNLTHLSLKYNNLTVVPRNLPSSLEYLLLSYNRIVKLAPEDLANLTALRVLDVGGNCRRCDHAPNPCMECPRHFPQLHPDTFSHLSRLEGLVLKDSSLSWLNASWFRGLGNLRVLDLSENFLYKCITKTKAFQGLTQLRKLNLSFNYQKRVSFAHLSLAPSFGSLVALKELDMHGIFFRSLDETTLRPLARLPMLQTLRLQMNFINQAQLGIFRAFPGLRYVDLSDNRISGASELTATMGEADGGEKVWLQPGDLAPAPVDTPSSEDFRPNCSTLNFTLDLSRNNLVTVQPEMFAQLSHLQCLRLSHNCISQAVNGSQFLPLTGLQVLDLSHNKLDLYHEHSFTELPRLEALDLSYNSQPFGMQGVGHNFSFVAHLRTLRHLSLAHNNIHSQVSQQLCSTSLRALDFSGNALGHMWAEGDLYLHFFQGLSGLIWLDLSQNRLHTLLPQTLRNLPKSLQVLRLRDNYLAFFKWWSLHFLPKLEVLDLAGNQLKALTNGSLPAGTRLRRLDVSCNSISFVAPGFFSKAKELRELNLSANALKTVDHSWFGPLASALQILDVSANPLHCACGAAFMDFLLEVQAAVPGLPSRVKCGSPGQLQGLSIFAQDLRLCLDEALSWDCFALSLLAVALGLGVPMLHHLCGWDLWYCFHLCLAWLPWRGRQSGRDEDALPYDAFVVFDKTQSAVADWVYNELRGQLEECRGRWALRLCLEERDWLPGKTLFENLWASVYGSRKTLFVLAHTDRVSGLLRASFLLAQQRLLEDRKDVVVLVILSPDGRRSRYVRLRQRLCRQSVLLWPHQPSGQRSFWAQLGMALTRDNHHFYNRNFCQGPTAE
The experiment in a line: TLR9 inhibition reporter assay (HEK-Blue cells, SEAP reporter, ODN2006 stimulation). Particulars: HEK-Blue cells overexpressing human TLR9, SEAP reporter, ODN2006 5 nM. In outline: (§1)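 Agonists (final): TLR7 gardiquimod 7.5 μM; TLR8 R848 15.9 μM; TLR9 ODN2006 5 nM. HEK-Blue reporter cells, 30 min RT compound pre-incubation, 0.05 nM–50 μM dose range, 22 h at 37 °C, colorimetric SEAP detection medium. % inhibition relative to agonist+DMSO and known-inhibitor wells.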

Another assay concerns the target T2, human TLR7 (Homo sapiens, UniProt Q9NYK1).
T2 construct: host or cells: HEK-Blue cells (HEK293-derived reporter line)
T2 sequence (Q9NYK1 27-1049): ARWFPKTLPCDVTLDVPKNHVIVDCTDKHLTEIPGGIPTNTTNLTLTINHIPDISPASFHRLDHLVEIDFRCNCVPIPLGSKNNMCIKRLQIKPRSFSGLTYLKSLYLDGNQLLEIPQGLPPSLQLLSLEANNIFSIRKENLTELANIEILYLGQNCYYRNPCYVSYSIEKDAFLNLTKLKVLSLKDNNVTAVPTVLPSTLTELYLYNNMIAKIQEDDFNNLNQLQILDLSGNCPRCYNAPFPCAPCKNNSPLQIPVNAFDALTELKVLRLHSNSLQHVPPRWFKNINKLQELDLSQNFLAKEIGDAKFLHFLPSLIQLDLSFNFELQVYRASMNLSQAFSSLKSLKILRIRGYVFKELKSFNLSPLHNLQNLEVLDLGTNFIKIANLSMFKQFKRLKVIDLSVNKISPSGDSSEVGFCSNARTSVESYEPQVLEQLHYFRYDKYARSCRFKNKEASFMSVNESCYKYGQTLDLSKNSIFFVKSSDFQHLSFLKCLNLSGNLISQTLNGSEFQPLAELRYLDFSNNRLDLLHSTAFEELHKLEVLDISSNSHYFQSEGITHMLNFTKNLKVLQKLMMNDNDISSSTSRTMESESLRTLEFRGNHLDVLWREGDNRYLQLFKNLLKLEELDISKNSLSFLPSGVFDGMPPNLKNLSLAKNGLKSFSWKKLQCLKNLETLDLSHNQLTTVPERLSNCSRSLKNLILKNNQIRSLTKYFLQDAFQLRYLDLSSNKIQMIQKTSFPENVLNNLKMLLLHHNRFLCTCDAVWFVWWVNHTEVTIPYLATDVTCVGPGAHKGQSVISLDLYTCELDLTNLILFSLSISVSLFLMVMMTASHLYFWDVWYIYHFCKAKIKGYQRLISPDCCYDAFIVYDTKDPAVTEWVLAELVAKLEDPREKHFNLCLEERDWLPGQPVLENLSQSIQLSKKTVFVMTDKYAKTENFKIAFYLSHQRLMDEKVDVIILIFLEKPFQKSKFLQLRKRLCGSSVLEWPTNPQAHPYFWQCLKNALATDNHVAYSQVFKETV
Briefly: TLR7 inhibition reporter assay (HEK-Blue cells, SEAP reporter, gardiquimod stimulation). Particulars: HEK-Blue cells overexpressing human TLR7, SEAP reporter, gardiquimod 7.5 μM. A digest of the protocol:
as §1

The next assay deals with T3, human TLR8 (Homo sapiens, UniProt Q9NR97).
T3 construct: host or cells: HEK-Blue cells (HEK293-derived reporter line)
T3 sequence (Q9NR97 27-1041): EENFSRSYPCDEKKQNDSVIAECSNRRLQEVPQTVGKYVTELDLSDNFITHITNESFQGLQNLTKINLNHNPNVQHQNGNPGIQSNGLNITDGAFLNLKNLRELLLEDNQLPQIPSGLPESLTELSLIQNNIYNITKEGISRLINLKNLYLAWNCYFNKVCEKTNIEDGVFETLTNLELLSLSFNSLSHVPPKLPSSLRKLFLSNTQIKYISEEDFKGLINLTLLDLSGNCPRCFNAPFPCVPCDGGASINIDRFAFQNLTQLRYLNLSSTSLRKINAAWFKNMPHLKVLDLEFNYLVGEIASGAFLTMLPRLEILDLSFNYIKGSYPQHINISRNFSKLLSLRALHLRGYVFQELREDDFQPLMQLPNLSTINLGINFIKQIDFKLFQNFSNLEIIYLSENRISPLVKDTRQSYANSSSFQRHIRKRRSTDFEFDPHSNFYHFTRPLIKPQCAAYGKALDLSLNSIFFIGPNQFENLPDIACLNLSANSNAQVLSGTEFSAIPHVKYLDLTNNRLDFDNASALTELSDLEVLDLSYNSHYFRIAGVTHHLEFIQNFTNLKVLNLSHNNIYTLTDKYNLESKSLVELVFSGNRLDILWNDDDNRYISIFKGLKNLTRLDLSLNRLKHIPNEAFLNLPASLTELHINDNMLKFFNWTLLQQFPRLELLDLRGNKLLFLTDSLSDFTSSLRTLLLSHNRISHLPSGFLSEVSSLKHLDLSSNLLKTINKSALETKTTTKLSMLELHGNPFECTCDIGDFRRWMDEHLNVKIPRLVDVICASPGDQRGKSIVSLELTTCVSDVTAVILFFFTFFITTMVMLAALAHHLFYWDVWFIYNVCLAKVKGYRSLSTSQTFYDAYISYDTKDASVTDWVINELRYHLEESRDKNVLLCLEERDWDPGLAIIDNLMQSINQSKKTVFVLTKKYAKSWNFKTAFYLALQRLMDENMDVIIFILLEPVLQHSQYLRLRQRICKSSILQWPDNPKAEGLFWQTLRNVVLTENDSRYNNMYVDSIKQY
The experiment in a line: TLR8 inhibition reporter assay (HEK-Blue cells, SEAP reporter, R848 stimulation). Conditions: HEK-Blue cells overexpressing human TLR8, SEAP reporter, R848 15.9 μM. In outline:
as §1
Background: A reporter such as luciferase makes a cellular process visible.

In the case of `Cc1c(-c2[nH]c3ccc(C4CCN(C5COC5)CC4)cc3c2C(C)C)cn2nnnc2c1C` [Example 739, 6-(3-isopropyl-5-(1-(oxetan-3-yl)piperidin-4-yl)-1H-indol-2-yl)-7,8-dimethyltetrazolo[1,5-a]pyridine], the IC50 was 1000 to 50000 nM on human TLR9, under 100 nM on human TLR7 and under 100 nM at human TLR8.
On to `COCCNC(=O)c1cn2cc(-c3[nH]c4ccc(C5CCNCC5)cc4c3C(C)C)cc(C)c2n1` [Example 269, 6-(3-isopropyl-5-(piperidin-4-yl)-1H-indol-2-yl)-N-(2-methoxyethyl)-8-methylimidazo[1,2-a]pyridine-2-carboxamide], for which the IC50 on human TLR9 was 100 to 1000 nM; at human TLR7, under 100 nM; on human TLR8, under 100 nM.
In the case of `CCN(CC)C(=O)C1CCCN(CC(=O)N2CCC(c3ccc4[nH]c(-c5ccnc6[nH]ccc56)c(C(C)C)c4c3)CC2)C1` (stereo not drawn) [Example 569, N,N-diethyl-1-(2-(4-(3-isopropyl-2-(1H-pyrrolo[2,3-b]pyridin-4-yl)-1H-indol-5-yl)piperidin-1-yl)-2-oxoethyl)piperidine-3-carboxamide], the IC50 against human TLR9 is 100 to 1000 nM; at human TLR7, under 100 nM; at human TLR8 it was under 100 nM.
Consider `COc1cc(-c2[nH]c3ccc(C4CCN(CCS(C)(=O)=O)CC4)cc3c2C(C)C)nn2ncnc12` [Example 782, 6-(3-isopropyl-5-(1-(2-(methylsulfonyl)ethyl)piperidin-4-yl)-1H-indol-2-yl)-8-methoxy-[1,2,4]triazolo[1,5-b]pyridazine], for which the IC50 was 1000 to 50000 nM at human TLR9, under 100 nM against human TLR7 and under 100 nM against human TLR8.
For `CC(C)c1c(-c2ccc3ncnn3n2)[nH]c2ccc(C3CCN(CC(C)(C)O)CC3)cc12` [Example 746, 1-(4-(2-([1,2,4]triazolo[1,5-b]pyridazin-6-yl)-3-isopropyl-1H-indol-5-yl)piperidin-1-yl)-2-methylpropan-2-ol], the IC50 on human TLR9 is 1000 to 50000 nM; against human TLR7, under 100 nM; on human TLR8, under 100 nM.
With `Cc1nn2ccc(-c3[nH]c4ccc(C5CCNCC5)cc4c3C(C)C)nc2c1F` [Example 150, 3-fluoro-5-(3-isopropyl-5-(piperidin-4-yl)-1H-indol-2-yl)-2-methylpyrazolo[1,5-a]pyrimidine], the IC50 at human TLR9, at human TLR7 and against human TLR8 was 1000 to 50000 nM throughout.
Take `CC(C)c1c(-c2cn3ccnc3cc2Cl)[nH]c2ccc(C3CCN(CC(=O)N(C)C)CC3)cc12` [Example 428, 2-(4-(2-(7-chloroimidazo[1,2-a]pyridin-6-yl)-3-isopropyl-1H-indol-5-yl)piperidin-1-yl)-N,N-dimethylacetamide]: the values for the IC50 at human TLR9, at human TLR7 and at human TLR8 were 1000 to 50000 nM, under 100 nM and under 100 nM, respectively.
`CCOc1cc(-c2[nH]c3ccc(C4CCN(C(=O)CN(C)C)CC4)cc3c2C(C)C)cc2ncnn12` [Example 498, 2-(dimethylamino)-1-(4-(2-(5-ethoxy-[1,2,4]triazolo[1,5-a]pyridin-7-yl)-3-isopropyl-1H-indol-5-yl)piperidin-1-yl)ethan-1-one]: the results for the IC50 against human TLR9, against human TLR7 and at human TLR8 were 100 to 1000 nM, under 100 nM and under 100 nM, respectively.
For `Cc1cc(-c2[nH]c3ccc(C4CCN(C5CCOCC5)CC4)cc3c2C(C)C)cn2ccnc12` [Example 705, 6-(3-isopropyl-5-(1-(tetrahydro-2H-pyran-4-yl)piperidin-4-yl)-1H-indol-2-yl)-8-methylimidazo[1,2-a]pyridine], the IC50 was 100 to 1000 nM on human TLR9, under 100 nM against human TLR7 and under 100 nM against human TLR8.
For the compound `COc1c(C)c(-c2[nH]c3ccc(C4CCN(C5COC5)CC4)cc3c2C(C)C)nn2ncnc12` [Example 731, 6-(3-isopropyl-5-(1-(oxetan-3-yl)piperidin-4-yl)-1H-indol-2-yl)-8-methoxy-7-methyl-[1,2,4]triazolo[1,5-b]pyridazine], the IC50 on human TLR9 is 1000 to 50000 nM; on human TLR7, under 100 nM; against human TLR8, under 100 nM.
In the case of `CNC(=O)CN1CCC(c2ccc3[nH]c(-c4cc(C)n5nncc5c4)c(C(C)C)c3c2)CC1` [Example 320, 2-(4-(3-isopropyl-2-(7-methyl-[1,2,3]triazolo[1,5-a]pyridin-5-yl)-1H-indol-5-yl)piperidin-1-yl)-N-methylacetamide], the IC50 on human TLR9 was 1000 to 50000 nM; on human TLR7, under 100 nM; on human TLR8, under 100 nM.
Regarding `CCc1c(-c2ccnc3[nH]ncc23)[nH]c2ccc(C3CCN(Cc4c[nH]c(-c5ccccc5)n4)CC3)cc12` [Example 908, 4-(3-ethyl-5-(1-((2-phenyl-1H-imidazol-4-yl)methyl)piperidin-4-yl)-1H-indol-2-yl)-1H-pyrazolo[3,4-b]pyridine], the IC50 at human TLR9 lay within 1000 to 50000 nM; against human TLR7, 100 to 1000 nM; against human TLR8, 100 to 1000 nM.
